Patent US20110053907A1, “SUBSTITUTED PYRIMIDINES AND TRIAZINES AND THEIR USE IN CANCER THERAPY” (Auckland UniServices Limited, priority 2008, published 2011)
Entries after “also recorded” stand apart in the source; their conditions may differ.

Columns and labels:
[1] = tested on: PI 3-kinase in 3T3L1 adipocytes; assay: Cellular irreversibility assay, insulin-stimulated phosphoSer473 PKB Western blot with and without washout; type: cell-based
Procedure: Fully differentiated 3T3L1 adipocytes were starved overnight without serum. The following day, cells were incubated for 60 min with wortmannin (100 nM) as the positive control, LY 294002 (5 μM) as the negative control, the test compounds (1 μM), or DMSO.
To test for irreversibility, cells were then either: 1) rinsed 3 times with warm medium and incubated without an inhibitor for 30 min; or 2) maintained in the same medium containing an inhibitor.
Cells were subsequently stimulated or not with insulin (100 nM, 10 min). Finally, cells were washed twice with ice-cold Phosphate Buffer Saline (PBS) (140 mM NaCl, 3 mM KCl, 6 mM Na2HPO4, 1 mM KH2PO4 (pH 7.4)) and solubilized with a lysis buffer (20 mM Tris-HCl, 138 mM NaCl, 2.7 mM KCl, 1 mM MgCl2, 1 mM CaCl2, 5% (v/v) glycerol, 1% (v/v) Nonidet P-40 (NP40), 5 mM EDTA, 20 μM leupeptin, 18 μM pepstatin, 1 mM AEBSF, 4 μg/mL aprotinin, 2 mM Na3VO4, 20 mM NaF, 1 mM DTT (pH7.4)). Lysates were kept on ice for 20 min and insoluble material was removed by centrifugation at 14,000 g for 10 min. Protein concentration was determined by colorimetric assay (BCA, Pierce).
Proteins were separated by SDS-PAGE and transferred to polyvinylidene difluoride (PVDF) membranes (Pall Corporation, USA). The membranes were incubated for 1 hr in a blocking buffer (20 mM Tris (pH 7.4), 137 mM NaCl, 0.5% (v/v) Tween 20) containing 3% (w/v) BSA (ICP Bio, Auckland, New Zealand) or non-fat milk, and then incubated overnight in the blocking buffer containing specific antibodies (phosphoSer473 PKB and total PKB) Immunoreactive proteins were detected using horseradish peroxidase-linked secondary antibodies (Dako) and enhanced chemiluminescence (ECL) according to the manufacturer's instructions (GE Healthcare, Inc.). Signals were analyzed and quantified using Fuji LAS-3000 phosphorimager and Fuji Image Gauge software.
Overnight-starved 3T3L1 adipocytes cells were incubated for 60 min with compound of Example 4 at 1 μM (lanes 7-12). […]

NZOV9 = assay: Cellular growth inhibition, 3H-thymidine incorporation; type: cell-based, human; settings: five days, 3H-thymidine over last 6 hrs; fifth data column
Procedure: The compounds were evaluated against two early passage human cell lines NZB5 and NZOV9 (Marshall et al., Oncol. Res. 2004, 14, 297). The cells were grown in ITS medium (α-modified minimal essential medium supplemented insulin, transferrin, selenite, and 5% fetal bovine serum) and grown on 96-well tissue culture plates under an atmosphere of 5% O2, 5% CO2, and 90% N2. Individual wells contained 500-1,000 cells (depending on the growth rate) in a volume of 150 μL. Compounds were added at 10-fold concentration steps to a maximum of 20 μM and plates were incubated for five days, with ^3H-thymidine being added over the last 6 hrs. Cells were harvested and incorporated radioactivity measured. Duplicate samples were analyzed for each compound dose with multiple control samples. Data were fitted by a least-squares method to an exponential of the form y=y0+ae^−bx, where y is the radioactivity (corrected for background and normalized to 100% of the control), x is the […], and y0, a, and b are variables, and the IC50 value defined as the compound concentration reducing ^3H-thymidine levels by 50%.

human tumour xenografts = settings: mouse, in vivo; cited from earlier work

Molecule: COc1cccc2c1nc(C(F)F)n2-c1nc(N2CCOCC2)nc(N2CCN(C(=O)CCl)CC2)n1 [Example 4, 1-[4-[4-(Chloroacetyl)-1-piperazinyl]-6-(4-morpholinyl)-1,3,5-triazin-2-yl]-2-(difluoromethyl)-4-methoxy-1H-benzimidazole]
- insulin-stimulated phosphorylation of PKB (phosphoSer473) ([1]; 1 μM, 60 min, compound left on cells, insulin 100 nM, 10 min (lanes 7-9)): attenuated
- insulin-stimulated phosphorylation of PKB (phosphoSer473) after washout ([1]; 1 μM, 60 min, rinsed 3 times, 30 min without compound, insulin 100 nM, 10 min (lanes 10-12)): attenuated
- irreversible binding to PI 3-kinase ([1]; 3T3L1 adipocytes, FIG. 1): irreversible binding; also recorded: irreversibly bound PI 3-kinase in the cells
- melting point: 241 to 243 °C

Molecule: COc1cccc2c1nc(C(F)F)n2-c1nc(N2CCOCC2)nc(N(C)[C@@H]2CCCN(C(=O)CCl)C2)n1 [Example 39, N-[(3R)-1-(chloroacetyl)piperidinyl]-4-[2-(difluoromethyl)-4-methoxy-1H-benzimidazol-1-yl]-N-methyl-6-(4-morpholinyl)-1,3,5-triazin-2-amine]
- IC50 (NZOV9): < 100 nM

Molecule: O=c1cc(N2CCOCC2)oc2c(-c3ccccc3)cccc12 [LY294002]
- tolerability (human tumour xenografts): well-tolerated

Molecule: N-[(3S)-1-(chloroacetyl)piperidinyl]-4-[2-(difluoromethyl)-4-methoxy-1H-benzimidazol-1-yl]-N-methyl-6-(4-morpholinyl)-1,3,5-triazin-2-amine [Example 40]
- IC50 (NZOV9): < 100 nM
